What was measured:
S1P1 [1] = biological target: T1, S1P1 (Homo sapiens (Human), UniProt P21453); assay: Receptor binding assay, [33P]sphingosine 1-phosphate, membranes from CHO cells expressing S1P1; settings: [33P]S1P 25 pM, SPA
Experimental: (§1) Receptor binding assay: Membranes were prepared from CHO cells expressing S1P1 or S1P3 for use in ligand and […] binding studies. Cells were suspended in 50 mM TRIS, pH 7.4, 2 mM EDTA, 250 mM Sucrose (buffer A) and 1× Complete protease inhibitor cocktail (Roche), and disrupted at 4° C. by nitrogen decompression using a cell disruption bomb (Parr Instrument). Following centrifugation at 1000 RPM for 10 min at 4° C., the supernatant was suspended in buffer A and centrifuged again at 19000 RPM for 60 min at 4° C. The pellet was then suspended in 10 mM HEPES, pH 7.4, 1 mM EDTA, 250 mM Sucrose (Buffer B), and 1× Complete EDTA-free protease inhibitor cocktail and homogenized using a potter. Membranes were flash frozen in liquid nitrogen and stored at −80° C. [33P]sphingosine 1-phosphate (3000 Ci/mmol; American Radiolabeled Chemicals, Inc.) was added to test compounds in DMSO. Membranes and WGA SPA beads (GE Healthcare) were added to give a final volume of 100 μl in 96-well plates with assay concentrations of 25 pM or 10 pM [33P]sphingosine 1-phosphate (respectively for S1P1 or S1P3), 50 mM HEPES, pH 7.5, 5 mM MgCl2, 100 mM NaCl, 0.4% fatty acid-free BSA, 1-5 μg/well of proteins and 100 μg/well of WGA SPA beads. Binding was performed for 60 min at room temperature on a shaker and bound radioactivity was measured on a PerkinElmer 1450 MicroBeta counter. Specific binding was calculated by subtracting remaining radioactivity in the presence of 1000-fold excess of unlabeled S1P. Binding data were analyzed using the GraphPad Prism program.

S1P1 [2] = biological target: T1, S1P1; assay: 35S-GTPγS binding, membranes from CHO cells expressing S1P1; assay type: biochemical; settings: 60 min 30° C., read-out: S1P1 GTPgS EC50
S1P3 = S1P3 (Homo sapiens (Human), UniProt Q99500); assay: 35S-GTPγS binding, membranes from CHO cells expressing S1P3; assay type: biochemical; settings: 60 min 30° C., read-out: S1P3 GTPgs EC50
S1P3, sequence (Q99500 whole entry, species assumed): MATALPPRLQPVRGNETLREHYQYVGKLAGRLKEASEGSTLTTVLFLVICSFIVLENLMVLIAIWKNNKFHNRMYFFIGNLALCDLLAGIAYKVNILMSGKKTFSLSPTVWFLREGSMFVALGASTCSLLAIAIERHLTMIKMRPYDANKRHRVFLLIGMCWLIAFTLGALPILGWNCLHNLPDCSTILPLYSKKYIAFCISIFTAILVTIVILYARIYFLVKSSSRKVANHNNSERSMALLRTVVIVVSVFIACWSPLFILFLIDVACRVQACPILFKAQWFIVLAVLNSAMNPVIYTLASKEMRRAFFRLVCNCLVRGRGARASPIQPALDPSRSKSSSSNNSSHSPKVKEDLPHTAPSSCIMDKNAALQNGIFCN
Experimental: as §1
Measurements of ^35S-GTPγS Binding: Membranes (1 to 10 μg protein) prepared as described above, were incubated in 96-well Scintiplates (PerkinElmer) with test compounds diluted in DMSO, in 180 μl of 20 mM HEPES, pH 7.4, 10 mM MgCl2, 2 μg/well Saponin, 0.2% fatty acid free BSA (Assay buffer), 140 mM NaCl and 1.7 μM GDP. The assay was initiated with the addition of 20 μl of 1.5 nM [35S]-GTPγS (1100 Ci/mmol; GE Healthcare) in assay buffer. After 60 min incubation at 30° C. on a shaker, plates were centrifuged for 10 min at 2000 RPM. Supernatant was discarded and membrane bound radioactivity was measured on a PerkinElmer 1450 MicroBeta counter. Triplicate samples were averaged and expressed as % response relative to S1P activation in absence of compound (n=2).

T1 sequence (P21453 whole entry, species assumed): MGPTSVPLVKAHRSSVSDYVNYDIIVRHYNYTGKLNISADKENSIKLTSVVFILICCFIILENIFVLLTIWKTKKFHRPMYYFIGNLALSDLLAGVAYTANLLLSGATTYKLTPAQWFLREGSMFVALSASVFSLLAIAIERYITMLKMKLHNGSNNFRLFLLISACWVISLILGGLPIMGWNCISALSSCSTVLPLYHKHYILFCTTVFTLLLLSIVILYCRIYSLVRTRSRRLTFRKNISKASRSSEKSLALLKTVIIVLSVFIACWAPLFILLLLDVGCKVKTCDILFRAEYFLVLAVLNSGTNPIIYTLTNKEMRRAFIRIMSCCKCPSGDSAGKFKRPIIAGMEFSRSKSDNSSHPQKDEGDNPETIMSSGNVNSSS

Compound	Ki (S1P1 [1]) [µM]	EC50 (S1P1 [2]) [µM]	EC50 (S1P3) [µM]
FC(F)(F)Oc1ccccc1-c1noc(-c2ccc(N3CCCCC3)cc2)n1 [Compound I3, 1-(4-{3-[2-(trifluoromethoxy)phenyl]-1,2,4-oxadiazol-5-yl}phenyl)piperidine]	0.652	1.78	–
CCOc1ccccc1-c1noc(-c2ccc(N3CCCCC3C)c([N+](=O)[O-])c2)n1 (centres unmarked) [Compound I10, 1-{4-[3-(2-ethoxyphenyl)-1,2,4-oxadiazol-5-yl]-2-nitrophenyl}-2-methylpiperidine]	–	0.024	> 30
CCOc1ccccc1-c1noc(-c2ccc(-c3ccccc3C)c(C)c2)n1 [Compound I22, 5-(2,2′-dimethylbiphenyl-4-yl)-3-(2-ethoxyphenyl)-1,2,4-oxadiazole]	–	0.051	> 30
COc1ccc(F)cc1-c1noc(-c2ccc(N3CCCCC3C)c(N)c2)n1 (centres unmarked) [Compound I69, 5-[3-(5-fluoro-2-methoxyphenyl)-1,2,4-oxadiazol-5-yl]-2-(2-methylpiperidin-1-yl)aniline]	–	0.024	0.27
COc1ccccc1-c1noc(-c2ccc(CC(C)C)cc2)n1 [Compound I28, 5-(4-isobutylphenyl)-3-(2-methoxyphenyl)-1,2,4-oxadiazole]	0.091	0.162	> 30
COc1ccccc1-c1noc(-c2ccc(N3CCCCC3)cc2)n1 [Compound I4, 1-{4-[3-(2-methoxyphenyl)-1,2,4-oxadiazol-5-yl]phenyl}piperidine]	1.07	3.6	–
COc1ccccc1-c1noc(-c2ccc(N3CCCC(F)(F)C3)c([N+](=O)[O-])c2)n1 [Compound I12, 3,3-difluoro-1-{4-[3-(2-methoxyphenyl)-1,2,4-oxadiazol-5-yl]-2-nitrophenyl}piperidine]	–	0.036	> 30
COc1ccccc1-c1noc(-c2ccc(N3CCCC(F)(F)C3)c(N(S(C)(=O)=O)S(C)(=O)=O)c2)n1 [Compound I37, N-dimethanesulfonyl-2-(3,3-difluoropiperidin-1-yl)-5-{3-[2-(methoxy)phenyl]-1,2,4-oxadiazol-5-yl}aniline]	–	0.921	–
COCCN(CCOC)c1ccc(-c2nc(-c3cc(F)ccc3OC)no2)cc1[N+](=O)[O-] [Compound I51, 4-[3-(5-fluoro-2-methoxyphenyl)-1,2,4-oxadiazol-5-yl]-N,N-bis(2-methoxyethyl)-2-nitroaniline]	–	0.085	–
COc1ccccc1-c1noc(-c2ccc(N3CCCC3)c([N+](=O)[O-])c2)n1 [Compound I13, 3-(2-methoxyphenyl)-5-(3-nitro-4-pyrrolidin-1-ylphenyl)-1,2,4-oxadiazole]	–	0.132	–
FC(F)(F)Oc1ccccc1-c1noc(-c2ccc(C3CCCCC3)cc2)n1 [Compound I29, 5-(4-cyclohexylphenyl)-3-[2-(trifluoromethoxy)phenyl]-1,2,4-oxadiazole]	0.025	0.059	–
COc1ccccc1-c1noc(-c2ccc(-c3ccccc3OC)c(C)c2)n1 [Compound I40, 5-(2′-methoxy-2-methylbiphenyl-4-yl)-3-(2-methoxyphenyl)-1,2,4-oxadiazole]	–	0.027	–
COc1ccccc1-c1noc(-c2ccc(N3CCOCC3)c(C)c2)n1 [Compound I64, 4-{4-[3-(2-methoxyphenyl)-1,2,4-oxadiazol-5-yl]-2-methylphenyl}morpholine]	–	0.098	–

Stronger by EC50 (S1P1 [2]), values ahead:

Ki (S1P1 [1]) [µM]	EC50 (S1P1 [2]) [µM]	EC50 (S1P3) [µM]	Compound
–	0.021	–	COc1ccccc1-c1noc(-c2ccc(N3CCCCC3)c(C(F)(F)F)c2)n1 [Compound I59, 1-[4-[3-(2-methoxyphenyl)-1,2,4-oxadiazol-5-yl]-2-(trifluoromethyl)phenyl]piperidine]
–	0.018	> 30	CC1CCCCN1c1ccc(-c2nc(-c3ccccc3OC(F)(F)F)no2)cc1[N+](=O)[O-] (centres unmarked) [Compound I8, 2-methyl-1-(2-nitro-4-{3-[2-(trifluoromethoxy)phenyl]-1,2,4-oxadiazol-5-yl}phenyl)piperidine]
–	0.018	> 30	FC(F)(F)Oc1ccccc1-c1noc(-c2ccc(N3CCOCC3)c(C(F)(F)F)c2)n1 [Compound I19, 4-[4-{3-[2-(trifluoromethoxy)phenyl]-1,2,4-oxadiazol-5-yl}-2-(trifluoromethyl)phenyl]morpholine]
–	0.014	> 20	COc1cc(-c2nc(-c3ccccc3OC(F)(F)F)no2)ccc1-c1ccccc1C [Compound I53, 5-(2-methoxy-2′-methylbiphenyl-4-yl)-3-[2-(trifluoromethoxy)phenyl]-1,2,4-oxadiazole]
–	0.013	> 30	COc1cc(-c2nc(-c3ccccc3OC(F)(F)F)no2)ccc1-c1cscc1C [Compound I54, 5-[3-methoxy-4-(4-methyl-3-thienyl)phenyl]-3-[2-(trifluoromethoxy)phenyl]-1,2,4-oxadiazole]
–	0.01	> 20	COc1ccccc1-c1ccc(-c2nc(-c3ccccc3OC(F)(F)F)no2)cc1C [Compound I45, 5-(2′-methoxy-2-methylbiphenyl-4-yl)-3-[2-(trifluoromethoxy)phenyl]-1,2,4-oxadiazole]
–	0.01	2.1	Cc1ccccc1-c1ccc(-c2nc(-c3ccccc3OC(F)(F)F)no2)cc1[N+](=O)[O-] [Compound I36, 5-(2′-methyl-2-nitrobiphenyl-4-yl)-3-[2-(trifluoromethoxy)phenyl]-1,2,4-oxadiazole]
0.002	0.009	5.05	COc1ccccc1-c1noc(-c2ccc(-c3ccccc3C)c([N+](=O)[O-])c2)n1 [Compound I26, 3-(2-methoxyphenyl)-5-(2′-methyl-2-nitrobiphenyl-4-yl)-1,2,4-oxadiazole]
–	0.007	5.41	COc1ccccc1-c1noc(-c2ccc(N3CCCCC3C)c([N+](=O)[O-])c2)n1 (centres unmarked) [Compound I9, 1-{4-[3-(2-methoxyphenyl)-1,2,4-oxadiazol-5-yl]-2-nitrophenyl}-2-methylpiperidine]
0.043	0.006	–	COc1ccc(F)cc1-c1noc(-c2ccc(-c3ccccc3C)c(C)c2)n1 [Compound I33, 5-(2,2′-dimethylbiphenyl-4-yl)-3-(5-fluoro-2-methoxyphenyl)-1,2,4-oxadiazole]
0.006	0.005	–	COc1ccc(F)cc1-c1noc(-c2cnc(N3CCCCC3C)c(C)c2)n1 (centres unmarked) [Compound I74, 5-[3-(5-fluoro-2-methoxyphenyl)-1,2,4-oxadiazol-5-yl]-3-methyl-2-(2-methylpiperidin-1-yl)pyridine]
0.008	0.004	–	COc1ccccc1-c1noc(-c2ccc(-c3ccccc3C)c(C(F)(F)F)c2)n1 [Compound I62, 3-(2-methoxyphenyl)-5-[2′-methyl-2-(trifluoromethyl)biphenyl-4-yl]-1,2,4-oxadiazole]
0.054	0.004	–	FC(F)(F)Oc1ccccc1-c1noc(-c2ccc(N3CCCCC3)c(C(F)(F)F)c2)n1 [Compound I61, 1-[4-{3-[2-(trifluoromethoxy)phenyl]-1,2,4-oxadiazol-5-yl}-2-(trifluoromethyl)phenyl]piperidine]
0.005	0.003	> 20	Cc1cc(-c2nc(-c3ccccc3OC(F)(F)F)no2)ccc1-c1cscc1C [Compound I44, 5-[3-methyl-4-(4-methyl-3-thienyl)phenyl]-3-[2-(trifluoromethoxy)phenyl]-1,2,4-oxadiazole]
0.001	0.002	1.7	COc1ccc(F)cc1-c1noc(-c2ccc(N3CCCCC3C)c([N+](=O)[O-])c2)n1 (centres unmarked) [Compound I32, 1-{4-[3-(5-fluoro-2-methoxyphenyl)-1,2,4-oxadiazol-5-yl]-2-nitrophenyl}-2-methylpiperidine]
0.003	0.002	0.65	COc1ccccc1-c1noc(-c2ccc(N3CCCCC3C)c(C(F)(F)F)c2)n1 (centres unmarked) [Compound I35, 1-[4-[3-(2-methoxyphenyl)-1,2,4-oxadiazol-5-yl]-2-(trifluoromethyl)phenyl]-2-methylpiperidine]
0.004	0.002	–	Cc1cscc1-c1ccc(-c2nc(-c3ccccc3OC(F)(F)F)no2)cc1C(F)(F)F [Compound I70, 5-[4-(4-methyl-3-thienyl)-3-(trifluoromethyl)phenyl]-3-[2-(trifluoromethoxy)phenyl]-1,2,4-oxadiazole]

— US8889668B2, “Oxadiazole diaryl compounds” (Merck Serono SA, priority 2007, dated 2014)
